In patent US20110112135A1, “Imidazo [1,2-A] Pyridine Compounds” (priority 2007, published 2011):

Tests used:
human LXRα = target: T1, human LXRα (Homo sapiens, UniProt Q13133); assay: Ligand-binding test procedure for human LXRα (3H T0901317 tracer, flash plates); details: biotinylated hLXRα from E. coli extract; tracer 3H T0901317
T1 construct: biotin (biotinylated); made in house; host or cells: E. coli (crude extract)
T1 sequence (Q13133 1-447): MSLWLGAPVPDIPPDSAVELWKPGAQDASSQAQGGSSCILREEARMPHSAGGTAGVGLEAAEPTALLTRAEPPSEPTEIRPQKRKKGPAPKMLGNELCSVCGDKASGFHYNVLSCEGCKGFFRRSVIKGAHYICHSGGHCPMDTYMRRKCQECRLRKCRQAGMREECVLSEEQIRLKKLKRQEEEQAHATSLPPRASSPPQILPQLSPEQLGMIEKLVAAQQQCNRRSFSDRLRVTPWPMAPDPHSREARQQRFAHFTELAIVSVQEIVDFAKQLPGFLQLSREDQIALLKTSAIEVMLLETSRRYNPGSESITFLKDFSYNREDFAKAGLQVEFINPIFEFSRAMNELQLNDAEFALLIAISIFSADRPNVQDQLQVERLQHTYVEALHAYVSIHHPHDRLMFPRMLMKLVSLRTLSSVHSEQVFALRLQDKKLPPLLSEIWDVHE
Experimental: II. Ligand-Binding Test Procedure for Human LXRα.
Receptor source: E. coli extract from cells expressing biotinylated hLXRα. Extract was made in a similar buffer as above, but with 50 mM TRIS.
(§1) Washed streptavidin and coated flash plates with wash buffer. Diluted receptor extract to give Bmax ˜4000 cpm and add to the wells. Wrapped the plates in aluminum foil and stored them at +4° C. over night.
(§2) Made a dilution series in DMSO of the test ligands. Made a 5 nM solution of the radioactive tracer in buffer. Mixed 250 μl diluted tracer with 5 μl of the test ligand from each concentration of the dilution series. Washed the receptor-coated flash plates. Added 200 μl per well of the ligand/radiolabel mixture to the receptor-coated flash plates. Wrapped the plates in aluminum foil and incubate at +4° C. over night.
(§3) Aspirated wells, and wash the flashed plates. Sealed the plate. Measured the remaining radioactivity in the plate.

human LXRβ = target: T2, human LXRβ (Homo sapiens, UniProt P55055); assay: Ligand-binding test procedure for human LXRβ (3H T0901317 tracer, flash plates); details: biotinylated hLXRβ from E. coli extract; tracer 3H T0901317
T2 construct: biotin (biotinylated); made in house; host or cells: E. coli (crude extract)
T2 sequence (P55055 1-460): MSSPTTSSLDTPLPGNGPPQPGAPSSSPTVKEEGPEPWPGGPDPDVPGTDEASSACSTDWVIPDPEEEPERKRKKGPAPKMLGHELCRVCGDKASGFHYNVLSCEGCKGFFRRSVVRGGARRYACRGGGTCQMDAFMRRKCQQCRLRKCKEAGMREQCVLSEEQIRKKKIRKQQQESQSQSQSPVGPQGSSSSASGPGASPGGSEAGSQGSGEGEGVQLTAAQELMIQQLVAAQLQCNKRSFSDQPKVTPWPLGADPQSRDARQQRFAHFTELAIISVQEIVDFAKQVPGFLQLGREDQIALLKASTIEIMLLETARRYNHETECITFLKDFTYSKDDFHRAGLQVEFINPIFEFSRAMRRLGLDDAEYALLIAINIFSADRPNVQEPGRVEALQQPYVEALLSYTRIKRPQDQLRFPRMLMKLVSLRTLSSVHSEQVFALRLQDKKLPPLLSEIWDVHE
Experimental: I. Ligand-Binding Test Procedure for Human LXRβ.
Receptor source: E. coli extract from cells expressing biotinylated hLXRβ. Extract was made in a similar buffer as above, but with 50 mM TRIS.
as §1, §2, §3

Structure (SMILES)	IC50 (human LXRα)	IC50 (human LXRβ)
CCCS(=O)(=O)c1cccc(Oc2cccc(-c3c(C)nc4c(C(F)(F)F)cccn34)c2)c1 [Example 11, 2-methyl-3-(3-(3-(propylsulfonyl)phenoxy)phenyl)-8-(trifluoromethyl)imidazo[1,2-a]pyridine]	1480 nM	143 nM
Cc1nc2c(C(F)(F)F)cccn2c1-c1cccc(Oc2cccc(S(=O)(=O)CCC(C)(C)O)c2)c1 [Example 14, 2-methyl-4-[(3-{3-[2-methyl-8-(trifluoromethyl)imidazo[1,2-a]pyridin-3-yl]phenoxy}phenyl)sulfonyl]butan-2-ol]	6250 nM	525 nM
Cc1nc2c(C(F)(F)F)cccn2c1-c1cccc(Oc2cc(F)cc(S(C)(=O)=O)c2)c1 [Example 15, 3-{3-[3-fluoro-5-(methylsulfonyl)phenoxy]phenyl}-2-methyl-8-(trifluoromethyl)imidazo[1,2-a]pyridine]	1880 nM	119 nM
CCC(C)S(=O)(=O)c1ccc(Oc2cccc(-c3c(C)nc4c(C(F)(F)F)cccn34)c2)cc1 (stereo not drawn) [Example 16, 3-{3-[4-(sec-butylsulfonyl)phenoxy]phenyl}-2-methyl-8-(trifluoromethyl)imidazo[1,2-a]pyridine]	4770 nM	508 nM
CCc1nc2c(C(F)(F)F)cccn2c1-c1cccc(Oc2cccc(S(=O)(=O)CCC(C)(C)O)c2)c1 [Example 22, 4-(3-(3-(2-ethyl-8-(trifluoromethyl)imidazo[1,2-a]pyridin-3-yl)phenoxy)phenylsulfonyl)-2-methylbutan-2-ol]	7130 nM	740 nM
CCS(=O)(=O)c1cccc(Oc2cccc(-c3c(C(C)C)nc4c(C(F)(F)F)cccn34)c2)c1 [Example 26, 2-isopropyl-3-(3-(3-(ethylsulfonyl)phenoxy)phenyl)-8-(trifluoromethyl)imidazo[1,2-a]pyridine]	221 nM	5 nM
CC(C)c1nc2c(C(F)(F)F)cccn2c1-c1cccc(Oc2cccc(S(=O)(=O)C(C)C)c2)c1 [Example 27, 2-isopropyl-3-(3-(3-(isopropylsulfonyl)phenoxy)phenyl)-8-(trifluoromethyl)imidazo[1,2-a]pyridine]	144 nM	8 nM
CCS(=O)(=O)c1cccc(Oc2cccc(-c3c(Cc4ccccc4)nc4c(C(F)(F)F)cccn34)c2)c1 [Example 29, 2-benzyl-3-(3-(3-(ethylsulfonyl)phenoxy)phenyl)-8-(trifluoromethyl)imidazo[1,2-a]pyridine]	10 nM	1.3 nM
CC(C)S(=O)(=O)c1cccc(Oc2cccc(-c3c(Cc4ccccc4)nc4c(C(F)(F)F)cccn34)c2)c1 [Example 30, 2-benzyl-3-(3-(3-(isopropylsulfonyl)phenoxy)phenyl)-8-(trifluoromethyl)imidazo[1,2-a]pyridine]	15.8 nM	1.7 nM
CC(C)c1nc2c(Cl)cccn2c1-c1cccc(Oc2ccc(S(N)(=O)=O)cc2)c1 [Example 39, 4-(3-(8-chloro-2-isopropylimidazo[1,2-a]pyridin-3-yl)phenoxy)benzenesulfonamide]	10200 nM	3650 nM
CCc1nc2c(Cl)cccn2c1-c1cccc(Oc2cccc(S(=O)(=O)N(Cc3ccc(OC)cc3)Cc3ccc(OC)cc3)c2)c1 [Example 42, 3-[3-(8-chloro-2-ethylimidazo[1,2-a]pyridin-3-yl)phenoxy]-N,N-bis(4-methoxybenzyl)benzenesulfonamide]	920 nM	409 nM
CCc1nc2c(Cl)cccn2c1-c1cccc(Oc2cccc(S(=O)(=O)N(C)Cc3ccc(OC)cc3)c2)c1 [Example 43, 3-[3-(8-chloro-2-ethylimidazo[1,2-a]pyridin-3-yl)phenoxy]-N-(4-methoxybenzyl)-N-methylbenzenesulfonamide]	39.9 nM	14.7 nM
CCc1nc2c(C#N)cccn2c1-c1cccc(Oc2cccc(S(=O)(=O)N(Cc3ccc(OC)cc3)Cc3ccc(OC)cc3)c2)c1 [Example 45, 3-[3-(8-cyano-2-ethylimidazo[1,2-a]pyridin-3-yl)phenoxy]-N,N-bis(4-methoxybenzyl)benzenesulfonamide]	> 1000 nM	> 1000 nM
CCc1nc2c(Cl)cccn2c1-c1cccc(Oc2cccc(S(N)(=O)=O)c2)c1 [Example 47, 3-[3-(8-chloro-2-ethylimidazo[1,2-a]pyridin-3-yl)phenoxy]benzenesulfonamide]	2140 nM	151 nM
CCc1nc2c(C(F)(F)F)cccn2c1-c1ccc(-c2cccc(S(C)(=O)=O)c2)nc1 [Example 87, 2-ethyl-3-{6-[3-(methylsulfonyl)phenyl]pyridin-3-yl}-8-(trifluoromethyl)imidazo[1,2-a]pyridine]		8330 nM
CCc1nc2c(C#N)cccn2c1-c1ccc(Oc2cccc(S(C)(=O)=O)c2)cc1 [Example 104, 2-ethyl-3-{4-[3-(methylsulfonyl)phenoxy]phenyl}imidazo[1,2-a]pyridine-8-carbonitrile]		> 1000 nM
CCc1nc2c(C#N)cccn2c1-c1ccc(Oc2cccc(S(=O)(=O)CC)c2)cc1 [Example 107, 2-ethyl-3-{4-[3-(ethylsulfonyl)phenoxy]phenyl}imidazo[1,2-a]pyridine-8-carbonitrile]		> 1000 nM
CCc1nc2c(C#N)cccn2c1-c1cccc(COc2cccc(S(C)(=O)=O)c2)c1 [Example 110, 2-ethyl-3-(3-{[3-(methylsulfonyl)phenoxy]methyl}phenyl)imidazo[1,2-a]pyridine-8-carbonitrile]		> 1000 nM
CCc1nc2c(Cl)cccn2c1-c1ccc(COc2cccc(S(C)(=O)=O)c2)cc1 [Example 112, 8-chloro-2-ethyl-3-(4-{[3-(methylsulfonyl)phenoxy]methyl}phenyl)imidazo[1,2-a]pyridine]		> 1000 nM
CC(C)c1nc2c(C#N)cccn2c1-c1ccc(Oc2cccc(S(C)(=O)=O)c2)cc1 [Example 123, 2-(1-methylethyl)-3-{4-[3-(methylsulfonyl)phenoxy]phenyl}imidazo[1,2-a]pyridine-8-carbonitrile]		> 1000 nM
CCS(=O)(=O)c1cccc(Oc2ccc(-c3c(C(C)C)nc4c(C#N)cccn34)cc2)c1 [Example 124, 3-{4-[3-(ethylsulfonyl)phenoxy]phenyl}-2-(1-methylethyl)imidazo[1,2-a]pyridine-8-carbonitrile]		> 1000 nM
CS(=O)(=O)c1cccc(Oc2ccc(-c3c(C(F)(F)F)nc4c(C(F)(F)F)cccn34)cc2)c1 [Example 125, 3-{4-[3-(methylsulfonyl)phenoxy]phenyl}-2,8-bis(trifluoromethyl)imidazo[1,2-a]pyridine]		600 nM
CN1CCN(Cc2nc3c(C(F)(F)F)cccn3c2-c2cccc(Oc3cccc(S(C)(=O)=O)c3)c2)CC1 [Example 132, 2-[(4-methylpiperazin-1-yl)methyl]-3-{3-[3-(methylsulfonyl)phenoxy]phenyl}-8-(trifluoromethyl)imidazo[1,2-a]pyridine]		> 1000 nM
CNCc1nc2c(C(F)(F)F)cccn2c1-c1cccc(Oc2cccc(S(C)(=O)=O)c2)c1 [Example 134, N-methyl-1-[3-{3-[3-(methylsulfonyl)phenoxy]phenyl}-8-(trifluoromethyl)imidazo[1,2-a]pyridin-2-yl]methanamine]		> 1000 nM
CC(C)NCc1nc2c(C(F)(F)F)cccn2c1-c1cccc(Oc2cccc(S(C)(=O)=O)c2)c1 [Example 136, N-{[3-{3-[3-(methylsulfonyl)phenoxy]phenyl}-8-(trifluoromethyl)imidazo[1,2-a]pyridin-2-yl]methyl}propan-2-amine]		> 1000 nM
